According to patent publication US11535621B2, “Heterobicyclic amides as inhibitors of CD38” (Ribon Therapeutics, Inc., priority 2019, dated 2022):

Target: Human CD38 (Homo sapiens (Human), UniProt P28907)
Assay: CD38 enzyme assay
Format: biochemical
Conditions: 2 nM CD38, NAD+ substrate, absorbance at 405 nm
How it was run: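 IC50 values come from fitting % inhibition against compound concentration with a 4-parameter logistic, or a 3-parameter fit with top/bottom fixed at 100/0 or Hill at 1. Inhibition is scaled between DMSO wells and positive-control wells treated with a quinolinone CD38 inhibitor.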

Sequence of Human CD38 (P28907 whole entry): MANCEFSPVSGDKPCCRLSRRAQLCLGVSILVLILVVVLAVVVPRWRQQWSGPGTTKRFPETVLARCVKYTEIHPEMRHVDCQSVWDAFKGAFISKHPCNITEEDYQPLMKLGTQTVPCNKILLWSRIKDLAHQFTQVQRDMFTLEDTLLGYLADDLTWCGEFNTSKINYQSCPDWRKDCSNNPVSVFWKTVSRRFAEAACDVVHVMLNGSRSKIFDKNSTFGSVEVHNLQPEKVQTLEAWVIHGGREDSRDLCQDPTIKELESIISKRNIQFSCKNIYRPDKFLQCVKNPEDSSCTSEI

Structure (SMILES)	IC50 [nM]
O=C(Nc1ccc(C(F)(F)F)nc1)c1nc(-n2ccnc2)cc2cn[nH]c12 [Example 229, 5-(1H-imidazol-1-yl)-N-(6-(trifluoromethyl)pyridin-3-yl)-1H-pyrazolo[3,4-c]pyridine-7-carboxamide]	< 10
COCCO[C@@H]1CCC[C@H](NC(=O)c2nc(-n3ccnc3)nc3cc[nH]c23)C1 [Example 124b, 2-(1H-imidazol-1-yl)-N-((1S,3R)-3-(2-methoxyethoxy)cyclohexyl)-5H-pyrrolo[3,2-d]pyrimidine-4-carboxamide]	10 to 100
O=C(Nc1cnc(OCCN2CCOCC2)c(Cl)c1)c1nc(-n2ccnc2)nc2cc[nH]c12 [Example 156]	< 10
C[C@@H](O)[C@H]1CC[C@H](NC(=O)c2nc(-n3ccnc3)nc3ccsc23)CC1 (single isomer, unassigned) [Example 267a]	< 10
C[C@@H](O)[C@H]1CC[C@H](NC(=O)c2nc(-n3ccnc3)cc3ccsc23)CC1 [Example 264a, N-((1R,4r)-4-((R)-1-hydroxyethyl)cyclohexyl)-5-(1H-imidazol-1-yl)thieno[2,3-c]pyridine-7-carboxamide]	< 10
O=C(NCc1c(F)cccc1C(F)(F)F)c1nc(-c2cncs2)nc2ccsc12 [Example 20, N-(2-Fluoro-6-(trifluoromethyl)benzyl)-2-(thiazol-5-yl)thieno [3,2-d]pyrimidine-4-carboxamide]	100 to 1000
O=C(N[C@H]1CC[C@H](CNCC(F)(F)F)CC1)c1nc(-n2ccnc2)cc2cn[nH]c12 [Example 250, 5-(1H-imidazol-1-yl)-N-((1r,4r)-4-(((2,2,2-trifluoroethyl)amino)methyl)cyclohexyl)-1H-pyrazolo[3,4-c]pyridine-7-carboxamide]	10 to 100
COCCO[C@H]1CC[C@H](NC(=O)c2nc(-n3ccnc3)nc3cc(C)[nH]c23)CC1 [Example 108, 2-(1H-imidazol-1-yl)-N-((1r,4r)-4-(2-methoxyethoxy)cyclohexyl)-6-methyl-5H-pyrrolo[3,2-d]pyrimidine-4-carboxamide]	10 to 100
O=C(N[C@H]1CC[C@H](NCC(F)(F)F)CC1)c1nc(-n2ccnc2)cc2cn[nH]c12 [Example 115, 5-(1H-imidazol-1-yl)-N-((1r,4r)-4-((2,2,2-trifluoroethyl)amino)cyclohexyl)-1H-pyrazolo[3,4-c]pyridine-7-carboxamide]	10 to 100
N#C[C@H]1CC[C@H](CNC(=O)c2nc(-n3ccnc3)nc3cc[nH]c23)CC1 [Example 166]	10 to 100
CN1CCC(NC(=O)c2nc(-n3ccnc3)nc3cc[nH]c23)CC1 [Example 60, 2-(1H-Imidazol-1-yl)-N-(1-methylpiperidin-4-yl)-5H-pyrrolo[3,2-d]pyrimidine-4-carboxamide]	> 1000
O=C(N[C@H]1CC[C@@H](OCC(F)(F)F)CC1)c1nc(-n2ccnc2)cc2cn[nH]c12 [Example 251, 5-(1H-imidazol-1-yl)-N-((1s,4s)-4-(2,2,2-trifluoroethoxy)cyclohexyl)-1H-pyrazolo[3,4-c]pyridine-7-carboxamide]	10 to 100
O=C(NCC1CCCCC1)c1nc(-n2ccnc2)nc2cc[nH]c12 [Example 78, N-(Cyclohexylmethyl)-2-(1H-imidazol-1-yl)-5H-pyrrolo[3,2-d]pyrimidine-4-carboxamide]	10 to 100
O=C(NC1CCS(=O)(=O)CC1)c1nc(-n2ccnc2)nc2cc[nH]c12 [Example 61, N-(1,1-Dioxidotetrahydro-2H-thiopyran-4-yl)-2-(1H-imidazol-1-yl)-5H-pyrrolo[3,2-d]pyrimidine-4-carboxamide]	10 to 100
CN(CC(F)(F)F)[C@H]1CC[C@@H](NC(=O)c2nc(-n3ccnc3)nc3cc[nH]c23)CC1 [Example 113, 2-(1H-imidazol-1-yl)-N-((1s,4s)-4-(methyl(2,2,2-trifluoroethyl)amino)cyclohexyl)-5H-pyrrolo[3,2-d]pyrimidine-4-carboxamide]	10 to 100
O=C(N[C@H]1CC[C@H](N2CCCS2(=O)=O)CC1)c1nc(-n2ccnc2)nc2cc[nH]c12 [Example 178]	10 to 100
O=C(N[C@H]1CC[C@H](OCC(F)(F)F)CC1)c1nc(-n2ccnc2)cc2cn[nH]c12 [Example 252, 5-(1H-imidazol-1-yl)-N-((1r,4r)-4-(2,2,2-trifluoroethoxy)cyclohexyl)-1H-pyrazolo[3,4-c]pyridine-7-carboxamide]	10 to 100
CC(C)(N[C@H]1CC[C@H](NC(=O)c2nc(-n3ccnc3)cc3cn[nH]c23)CC1)C(F)F [Example 253, N-((1r,4r)-4-((1,1-difluoro-2-methylpropan-2-yl)amino)cyclohexyl)-5-(1H-imidazol-1-yl)-1H-pyrazolo[3,4-c]pyridine-7-carboxamide]	10 to 100
O=C(N[C@H]1CC[C@H](N2CC(F)(F)C2)CC1)c1nc(-n2ccnc2)nc2cc[nH]c12 [Example 204, N-((1r,4r)-4-(3,3-difluoroazetidin-1-yl)cyclohexyl)-2-(1H-imidazol-1-yl)-5H-pyrrolo[3,2-d]pyrimidine-4-carboxamide]	10 to 100
CC(F)(F)CN[C@H]1CC[C@H](NC(=O)c2nc(-n3ccnc3)cc3cn[nH]c23)CC1 [Example 193, N-((1r,4r)-4-((2,2-difluoropropyl)amino)cyclohexyl)-5-(1H-imidazol-1-yl)-1H-pyrazolo[3,4-c]pyridine-7-carboxamide]	10 to 100
CC(C)(N[C@H]1CC[C@@H](NC(=O)c2nc(-n3ccnc3)cc3cn[nH]c23)CC1)C(F)F [Example 254, N-((1s,4s)-4-((1,1-difluoro-2-methylpropan-2-yl)amino)cyclohexyl)-5-(1H-imidazol-1-yl)-1H-pyrazolo[3,4-c]pyridine-7-carboxamide]	100 to 1000
COCCO[C@H]1CC[C@H](NC(=O)c2nc(-c3cncs3)nc3ccsc23)CC1 [Example 50, N-((1r,4r)-4-(2-Methoxyethoxy)cyclohexyl)-2-(thiazol-5-yl)thieno[3,2-d]pyrimidine-4-carboxamide]	10 to 100
O=C(Nc1ccon1)c1nc(-n2ccnc2)nc2cc[nH]c12 [Example 162]	< 10

The remaining lines, values ahead:

IC50 [nM]	Structure (SMILES)
< 10	O=C(NC1CCC(F)(F)CC1)c1nc(-n2ccnc2)cc2cn[nH]c12 [Example 107, N-(4,4-difluorocyclohexyl)-5-(1H-imidazol-1-yl)-1H-pyrazolo[3,4-c]pyridine-7-carboxamide]
< 10	CO[C@H]1CC[C@H](NC(=O)c2nc(-n3ccnc3)nc3cn[nH]c23)CC1 [Example 183]
100 to 1000	COCCO[C@H]1CC[C@H](NC(=O)c2cc(-n3ccnc3)cc3cc(C)[nH]c23)CC1 [Example 9, 5-(1H-Imidazol-1-yl)-N-((1r,4r)-4-(2-methoxyethoxy)cyclohexyl)-2-methyl-1H-indole-7-carboxamide]
< 10	O=C(Nc1ccc(OCCN2CCOCC2)nc1)c1nc(-n2ccnc2)nc2cc[nH]c12 [Example 145]
< 10	O=C(Nc1ccc(OCC(F)(F)F)nc1)c1nc(-n2ccnc2)cc2cn[nH]c12 [Example 231, 5-(1H-imidazol-1-yl)-N-(6-(2,2,2-trifluoroethoxy)pyridin-3-yl)-1H-pyrazolo[3,4-c]pyridine-7-carboxamide]
10 to 100	O=C(N[C@H]1CC[C@H](NCC(F)(F)F)CC1)c1nc(-n2ccnc2)nc2cn[nH]c12 [Example 191, 5-(1H-imidazol-1-yl)-N-((1r,4r)-4-((2,2,2-trifluoroethyl)amino)cyclohexyl)-1H-pyrazolo[4,3-d]pyrimidine-7-carboxamide]
< 10	O=C(NC1CCCCCC1)c1nc(-n2ccnc2)nc2cc[nH]c12 [Example 92, N-Cycloheptyl-2-(1H-imidazol-1-yl)-5H-pyrrolo[3,2-d]pyrimidine-4-carboxamide]
< 10	O=C(NC1CCCOC1)c1nc(-n2ccnc2)nc2cc[nH]c12 (stereo not shown) [Example 27, 2-(1H-Imidazol-1-yl)-N-(tetrahydro-2H-pyran-3-yl)-5H-pyrrolo[3,2-d]pyrimidine-4-carboxamide]
10 to 100	C[C@H](O)CO[C@H]1CC[C@H](NC(=O)c2nc(-n3ccnc3)cc3cn[nH]c23)CC1 (single isomer, unassigned) [Example 207]
< 10	O=C(Nc1cncnc1)c1nc(-n2ccnc2)nc2cc[nH]c12 [Example 153]
10 to 100	O=C(NC1(c2ccccc2)CC1)c1nc(-n2ccnc2)nc2cc[nH]c12 [Example 164]
10 to 100	CN(C)C(=O)CO[C@H]1CC[C@H](NC(=O)c2nc(-n3ccnc3)cc3cn[nH]c23)CC1 [Example 202, N-((1r,4r)-4-(2-(dimethylamino)-2-oxoethoxy)cyclohexyl)-5-(1H-imidazol-1-yl)-1H-pyrazolo[3,4-c]pyridine-7-carboxamide]
> 1000	COCCO[C@H]1CC[C@H](NC(=O)c2nc(-n3ccnc3C)nc3cc[nH]c23)CC1 [Example 34, N-((1r,4r)-4-(2-Methoxyethoxy)cyclohexyl)-2-(2-methyl-1H-imidazol-1-yl)-5H-pyrrolo[3,2-d]pyrimidine-4-carboxamide]
< 10	O=C(N[C@H]1CC[C@H](C2(O)CC2)CC1)c1nc(-n2ccnc2)cc2cn[nH]c12 [Example 228, N-((1r,4r)-4-(1-hydroxycyclopropyl)cyclohexyl)-5-(1H-imidazol-1-yl)-1H-pyrazolo[3,4-c]pyridine-7-carboxamide]
< 10	N#CCO[C@H]1CC[C@H](NC(=O)c2nc(-n3ccnc3)nc3cc[nH]c23)CC1 [Example 104, N-((1r,4r)-4-(cyanomethoxy)cyclohexyl)-2-(1H-imidazol-1-yl)-5H-pyrrolo[3,2-d]pyrimidine-4-carboxamide]
10 to 100	COCCO[C@H]1C[C@H](NC(=O)c2nc(-n3ccnc3)nc3cc[nH]c23)C1 [Example 65, 2-(1H-Imidazol-1-yl)-N-((1r,3r)-3-(2-methoxyethoxy)cyclobutyl)-5H-pyrrolo[3,2-d]pyrimidine-4-carboxamide]
< 10	O=C(N[C@H]1CC[C@H](C(F)(F)F)CC1)c1nc(-n2ccnc2)cc2cn[nH]c12 [Example 171]
